# From publication PMC3030572, “Antamanide, a Derivative of Amanita phalloides, Is a Novel Inhibitor of the Mitochondrial Permeability Transition Pore” (PLoS ONE, 2011)
# “Also recorded” adds a separate entry of the source. Read-outs that look alike come from different tables or passages of the source.
# What was measured:
# [1] = system: mitochondrial permeability transition pore (PTP), wild-type fibroblasts; experiment: CRC assay, mitochondria isolated from wild-type mouse fibroblasts; type: biochemical; settings: Figure 3B
# Description: Figure 3 Effect of AA on respiration and PTP opening in mitochondria of wild-type or CyP-D knock-out mouse fibroblasts. A, upper part: Western blot analysis assessing CyP-D expression in fibroblasts obtained from either wild-type or CyP-D knock-out mice; HKII was utilized to verify protein load; lower part: representative experiment showing oxygen consumption as assessed by polarography (see Methods) in mitochondria isolated from wild-type fibroblasts in the absence (a) or presence (b) of 8 µM AA. Experiments were started by adding 0.6 mg of mitochondria (Mito), followed by 100 µM ADP and 50 µM 2,4-dinitrophenol (DNP) (arrows). Each experiment was repeated at least three times. Oxygen consumption is reported as percentage of initial value on the y axis. B, bar graphs report the ratio between the CRC detected in the presence (CRC) and absence (CRC0) of increasing concentrations of AA, in mitochondria from either wild-type fibroblasts (left) or CyP-D knock-out fibroblasts (right).
# (§1) Mitochondria were isolated either from livers of C57BL/6 mice through sequential centrifugations, or from cells, as described. To obtain mitochondria, cells were disrupted with a glass-Teflon potter in a buffer composed by 250 mM sucrose, 10 mM Tris-HCl, 0.1 mM EGTA-Tris, pH 7.4. Nuclei and plasma membrane fractions were separated by a first mild centrifugation (700× g, 10 min), and mitochondria were then spinned down at a higher speed (7000× g, 10 min). All procedures were carried out at 0–4°C.
# (§2) PTP opening was detected as a fluorescence increase.
# [2] = system: mitochondrial permeability transition pore (PTP), wild-type fibroblasts; type: cell-based, mouse; settings: Figure 4C
# Description: A, B, PTP opening of digitonized wild-type (A) or CyP-D knock-out (B) fibroblasts was measured with the whole-cell CRC assay. Experiments were started by the addition of digitonized cells (not shown) followed by pulses of Ca^2+ (5 µM each) and are plotted as in Figure 1B. The use of AA is shown with a red trace. Alamethicin (Alm, 1 µM) was added at the end of each measurement to fully release Ca^2+ from intracellular stores. […] D, isomerase activity assay (see Materials and Methods): after addition of the substrate peptide N-succinyl-Ala-Ala-cis-trans-Pro-Phe-p-nitroanilide (arrow), chimotrypsin cleaves the trans-isomeric form, causing a rise in absorbance.
# The Ca^2+ retention capacity (CRC) assay was used to assess PTP opening following trains of Ca^2+ pulses and measured fluorimetrically at 25°C in the presence of the Ca^2+ indicator Calcium Green-5N (1 µM; λexc: 505 nm; λem: 535 nm; Molecular Probes). […] Digitonin was then eliminated and the number of cells carefully assessed before starting each experiment. […] Cells or mitochondria were then exposed to Ca^2+ spikes, and fluorescence drops were used to assess mitochondrial Ca^2+ uptake. PTP opening was detected as a fluorescence increase. Calcium Green-5N fluorescence was measured either with a fluorescence spectrometer LS50B (Perkin Elmer, Waltham, MA) or with a Fluoroskan Ascent FL fluorimeter (Thermo Electron Corporation, Waltham, MA).
# HeLa cells = type: cell-based, human; settings: clotrimazole; data not shown
# [3] = system: organic anion-transporting polypeptide family; settings: also our unpublished data; ref [8]; cited from earlier work
# From the text: (§3) Antamanide (AA) is a monocyclic, homodetic decapeptide isolated from the poisonous mushroom Amanita phalloides. […] Little is known about the biochemical mechanisms underlying these diverse bioactivities. […] The CyP chaperone activity, i.e. the isomerization to the cis form of the peptidyl bonds preceding each proline, is involved in folding and association processes required for proteins to perform thei ...
# immunosuppressant = system: immunosuppressant; set-up: method as in PMID 1494502, PMID 8441706; settings: ref [10], [11]; cited from earlier work
# From the text: as §3
# [4] = system: phallotoxins and amatoxins; settings: cited from earlier work
# From the text: Antamanide (AA) is a monocyclic, homodetic decapeptide isolated from the poisonous mushroom Amanita phalloides. […] Little is known about the biochemical mechanisms underlying these diverse bioactivities.
# [5] = system: mitochondrial permeability transition pore (PTP), HeLa cells; experiment: CRC assay, mitochondria isolated from HeLa cells; type: biochemical, human; settings: Figure 5A
# Description: Figure 5 Effect of AA on mitochondrial potential of HeLa cells. A, bar graphs report the ratio between the CRC detected in the presence (CRC) and absence (CRC0) of increasing concentrations of AA in mitochondria from HeLa cells. […] B,C cytofluorimetric analysis of mitochondrial depolarization. HeLa cells were incubated with the TMRM probe and treated for 1 hour with the reported concentrations of either clotrimazole (CTM) or TAT-HK peptide. An unrelated TAT-linked peptide (TAT-Ctr) is used as a negative control. […] Bar graphs in B display the percentage of cells with depolarized mitochondria (mean±SD, n = 4). […] Histograms in C report a representative experiment, where cells with polarized and depolarized mitochondria are indicated in red and grey, respectively.
# as §1, §2
# [6] = system: membrane permeabilization by phalloidin; experiment: membrane permeabilization by phalloidin; type: cell-based; settings: data not shown
# mouse liver mitochondria = experiment: mitochondrial respiration assay, mouse liver mitochondria; type: biochemical; settings: polarography, Clark electrode, 25°C; data not shown
# Description: Mitochondrial oxygen consumption was measured polarographically at 25°C with a Clark oxygen electrode (Yellow Springs Instruments, OH, USA). Mitochondria (0.6 mg per experimental point) were incubated in a solution of 130 mM KCl, 10 mM Tris-Mops, 1 mM Pi-Tris, 20 mM EGTA-Tris and 2 µM rotenone/5 mM succinate to assay basal respiration (state 4). ADP (200 µM) was subsequently added to measure state 3 respiration, followed by the uncoupling agent dinitrophenol (100 µM) to assess the maximal respiration rate.
# [7] = AA at various concentrations, mean±SD of at least 4 experiments, Student's t test
substance,measurement,setting,value
Antamanide [AA],CRC/CRC0: difference from CRC of untreated mitochondria,[1]; [7],significant difference (Student's t test analysis; *: p<0.01)
same,additivity of PTP inhibition with CsA,[1]; combination with CsA,not enhanced by CsA; also recorded: not additive
same,PTP inhibition (CRC),"[1]; isolated mitochondria, 25°C",AA inhibited the pore in mitochondria from wild-type fibroblasts
same,PTP inhibition (CRC/CRC0),"[2]; digitonized wild-type cells, mean±SD of at least 4 experiments",display an inhibitory effect on the PTP in wild-type
same,CRC/CRC0: difference from CRC of untreated mitochondria,"[2]; wild-type fibroblasts, Student's t test",significant difference (Student's t test analysis; *: p<0.01)
same,inhibition of clotrimazole-induced cell death,HeLa cells,inhibited the process
same,inhibition of cell uptake of phalloidin,[3],block cell uptake of the phallotoxin phalloidin
same,immunosuppressant activity,immunosuppressant,acts as an immunosuppressant
same,antidote activity,[4]; ref [2],strong antidote activity against phallotoxins and amatoxins
same,abrogation of toxic effects of phalloidin,"[4]; ref [8], [9]",abrogates the toxic effects of the phallotoxin phalloidin
same,CRC/CRC0: difference from CRC of untreated mitochondria,[5]; [7],significant difference (Student's t test analysis; *: p<0.01)
same,additivity of PTP inhibition with CsA,[5]; combination with CsA,the effect of AA did not add to that of CsA; also recorded: not additive
same,PTP inhibition (CRC),[5]; mitochondria from HeLa cells,AA inhibited the pore also in mitochondria isolated from HeLa cells
same,inhibition of membrane permeabilization by phalloidin,[6],inhibits membrane permeabilization by phalloidin
same,oxygen consumption,mouse liver mitochondria,unaffected
